According to ChEMBL document CHEMBL1201862, “PubChem BioAssay data set” (2004):
The source made the active and inactive calls.

Experiments:
[1] = target: Nucleotide-binding oligomerization domain-containing protein 2 (Homo sapiens, UniProt Q9HC29); assay: PubChem AID 2334; format: functional
HEK293 = assay: cells; conditions: Homo sapiens;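 also: cells exposed to compound for 14 hours overnight before viability readout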
[2] = target: T1, Nucleotide-binding oligomerization domain-containing protein 1 (Homo sapiens, UniProt Q9Y239); assay: blockers of NOD1 pathway activity – revised, SAR follow-up (AID 2333); format: functional
T1 sequence (Q9Y239 whole entry): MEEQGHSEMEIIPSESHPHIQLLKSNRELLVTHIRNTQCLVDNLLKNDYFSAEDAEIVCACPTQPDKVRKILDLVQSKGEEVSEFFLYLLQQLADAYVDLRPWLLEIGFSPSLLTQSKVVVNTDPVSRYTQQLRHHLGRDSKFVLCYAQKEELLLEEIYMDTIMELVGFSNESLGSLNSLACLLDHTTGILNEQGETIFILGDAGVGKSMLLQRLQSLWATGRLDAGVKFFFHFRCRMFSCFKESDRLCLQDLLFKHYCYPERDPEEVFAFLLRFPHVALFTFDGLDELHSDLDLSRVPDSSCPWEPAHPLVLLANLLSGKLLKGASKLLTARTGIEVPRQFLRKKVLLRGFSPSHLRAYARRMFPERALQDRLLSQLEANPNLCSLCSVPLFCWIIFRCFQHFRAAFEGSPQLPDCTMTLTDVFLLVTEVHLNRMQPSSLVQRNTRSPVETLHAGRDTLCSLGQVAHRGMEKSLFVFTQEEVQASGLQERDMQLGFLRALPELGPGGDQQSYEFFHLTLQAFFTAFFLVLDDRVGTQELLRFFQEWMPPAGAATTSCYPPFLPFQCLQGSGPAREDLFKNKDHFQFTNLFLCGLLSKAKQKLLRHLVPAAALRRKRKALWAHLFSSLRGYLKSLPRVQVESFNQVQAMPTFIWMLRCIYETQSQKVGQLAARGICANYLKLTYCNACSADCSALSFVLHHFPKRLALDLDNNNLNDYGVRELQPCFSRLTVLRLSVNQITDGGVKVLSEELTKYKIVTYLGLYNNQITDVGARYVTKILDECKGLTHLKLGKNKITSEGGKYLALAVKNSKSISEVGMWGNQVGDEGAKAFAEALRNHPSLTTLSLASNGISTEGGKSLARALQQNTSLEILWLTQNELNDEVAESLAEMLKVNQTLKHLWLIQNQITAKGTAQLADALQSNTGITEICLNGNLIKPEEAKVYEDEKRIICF

Tumor necrosis factor = Tumor necrosis factor (Homo sapiens, UniProt P01375); assay: analog potency on TNFa NF-kB signaling – cell-based, revised, SAR follow-up (AID 2337); format: functional
Chain of Tumor necrosis factor (P01375 whole entry): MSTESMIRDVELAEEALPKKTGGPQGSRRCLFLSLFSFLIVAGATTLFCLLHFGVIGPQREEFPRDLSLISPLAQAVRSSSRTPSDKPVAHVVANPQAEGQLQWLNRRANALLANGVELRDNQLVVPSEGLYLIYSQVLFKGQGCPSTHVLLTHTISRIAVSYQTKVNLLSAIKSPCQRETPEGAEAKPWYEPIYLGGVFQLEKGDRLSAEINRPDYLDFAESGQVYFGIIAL

Leucine aminopeptidase = target: T2, Leucine aminopeptidase (Plasmodium falciparum 3D7, UniProt Q8IL11); assay: P. falciparum M17LAP inhibitors, primary screen, biochemical, fluorogenic H-Leu-NHMec substrate, 1536-well (AID 1619); format: functional
T2 sequence (Q8IL11 whole entry): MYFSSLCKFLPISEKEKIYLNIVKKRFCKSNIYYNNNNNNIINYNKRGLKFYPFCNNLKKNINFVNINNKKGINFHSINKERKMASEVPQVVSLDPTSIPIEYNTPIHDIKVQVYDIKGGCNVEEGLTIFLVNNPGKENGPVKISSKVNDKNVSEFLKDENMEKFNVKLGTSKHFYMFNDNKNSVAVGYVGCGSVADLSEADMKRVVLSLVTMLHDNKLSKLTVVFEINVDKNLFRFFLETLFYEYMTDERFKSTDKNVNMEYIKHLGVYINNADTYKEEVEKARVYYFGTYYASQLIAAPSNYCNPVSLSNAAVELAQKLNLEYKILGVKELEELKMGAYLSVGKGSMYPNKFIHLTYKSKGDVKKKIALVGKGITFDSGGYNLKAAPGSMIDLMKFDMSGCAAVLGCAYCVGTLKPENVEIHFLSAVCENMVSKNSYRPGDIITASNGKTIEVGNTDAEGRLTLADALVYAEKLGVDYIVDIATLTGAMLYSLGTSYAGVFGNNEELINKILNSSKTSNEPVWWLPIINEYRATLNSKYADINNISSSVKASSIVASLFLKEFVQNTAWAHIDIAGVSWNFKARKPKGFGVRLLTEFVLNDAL

[3] = target: Peroxisome proliferator-activated receptor gamma/Nuclear receptor coactivator 3 (Homo sapiens, UniProt P37231); format: functional;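 also: agonist potency for raising coactivator recruitment to the receptor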
[4] = target: Peroxisome proliferator-activated receptor gamma/Nuclear receptor coactivator 1 (Homo sapiens, UniProt P37231); format: functional;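 also: agonist potency as compounds enhance coactivator SRC-1 recruitment to PPARgamma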
[5] = target: Peroxisome proliferator-activated receptor gamma/Nuclear receptor corepressor 2 (Homo sapiens, UniProt P37231+Q9Y618); format: functional
[6] = target: Photoreceptor-specific nuclear receptor (Homo sapiens, UniProt Q9Y5X4); format: functional;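 also: potency for compounds that break the NR2E3 corepressor complex and count as activators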
Chain of Photoreceptor-specific nuclear receptor (Q9Y5X4 whole entry): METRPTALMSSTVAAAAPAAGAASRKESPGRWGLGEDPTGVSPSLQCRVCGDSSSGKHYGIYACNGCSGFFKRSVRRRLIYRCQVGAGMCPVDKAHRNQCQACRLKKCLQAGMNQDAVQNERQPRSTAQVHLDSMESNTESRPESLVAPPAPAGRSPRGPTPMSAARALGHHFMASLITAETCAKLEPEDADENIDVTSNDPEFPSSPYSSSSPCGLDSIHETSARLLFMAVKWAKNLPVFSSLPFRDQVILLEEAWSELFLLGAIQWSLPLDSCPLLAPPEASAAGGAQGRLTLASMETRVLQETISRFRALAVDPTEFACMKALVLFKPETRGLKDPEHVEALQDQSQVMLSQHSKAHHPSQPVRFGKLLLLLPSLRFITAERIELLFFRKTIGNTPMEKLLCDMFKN

[7] = target: Peroxisome proliferator-activated receptor gamma/Nuclear receptor coactivator 2 (Homo sapiens, UniProt P37231); format: functional;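 also: agonist potency for raising coactivator recruitment to the receptor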
Chain of Peroxisome proliferator-activated receptor gamma/Nuclear receptor coactivator 2 (P37231 whole entry): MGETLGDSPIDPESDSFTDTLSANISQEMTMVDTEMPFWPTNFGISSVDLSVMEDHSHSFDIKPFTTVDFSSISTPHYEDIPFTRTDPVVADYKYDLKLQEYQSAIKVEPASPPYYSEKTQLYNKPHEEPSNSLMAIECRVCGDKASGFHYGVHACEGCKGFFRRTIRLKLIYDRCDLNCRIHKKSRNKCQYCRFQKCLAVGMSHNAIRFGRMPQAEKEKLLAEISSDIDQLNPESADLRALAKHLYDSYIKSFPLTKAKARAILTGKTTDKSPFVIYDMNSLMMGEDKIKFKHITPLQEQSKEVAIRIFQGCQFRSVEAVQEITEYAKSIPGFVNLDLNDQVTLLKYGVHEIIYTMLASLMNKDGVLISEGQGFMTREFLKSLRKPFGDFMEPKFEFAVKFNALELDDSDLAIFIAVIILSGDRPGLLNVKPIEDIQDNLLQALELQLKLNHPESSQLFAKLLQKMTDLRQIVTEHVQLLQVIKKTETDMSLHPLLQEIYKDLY
Chain of Peroxisome proliferator-activated receptor gamma/Nuclear receptor coactivator 2 (Q15596 whole entry, further chain): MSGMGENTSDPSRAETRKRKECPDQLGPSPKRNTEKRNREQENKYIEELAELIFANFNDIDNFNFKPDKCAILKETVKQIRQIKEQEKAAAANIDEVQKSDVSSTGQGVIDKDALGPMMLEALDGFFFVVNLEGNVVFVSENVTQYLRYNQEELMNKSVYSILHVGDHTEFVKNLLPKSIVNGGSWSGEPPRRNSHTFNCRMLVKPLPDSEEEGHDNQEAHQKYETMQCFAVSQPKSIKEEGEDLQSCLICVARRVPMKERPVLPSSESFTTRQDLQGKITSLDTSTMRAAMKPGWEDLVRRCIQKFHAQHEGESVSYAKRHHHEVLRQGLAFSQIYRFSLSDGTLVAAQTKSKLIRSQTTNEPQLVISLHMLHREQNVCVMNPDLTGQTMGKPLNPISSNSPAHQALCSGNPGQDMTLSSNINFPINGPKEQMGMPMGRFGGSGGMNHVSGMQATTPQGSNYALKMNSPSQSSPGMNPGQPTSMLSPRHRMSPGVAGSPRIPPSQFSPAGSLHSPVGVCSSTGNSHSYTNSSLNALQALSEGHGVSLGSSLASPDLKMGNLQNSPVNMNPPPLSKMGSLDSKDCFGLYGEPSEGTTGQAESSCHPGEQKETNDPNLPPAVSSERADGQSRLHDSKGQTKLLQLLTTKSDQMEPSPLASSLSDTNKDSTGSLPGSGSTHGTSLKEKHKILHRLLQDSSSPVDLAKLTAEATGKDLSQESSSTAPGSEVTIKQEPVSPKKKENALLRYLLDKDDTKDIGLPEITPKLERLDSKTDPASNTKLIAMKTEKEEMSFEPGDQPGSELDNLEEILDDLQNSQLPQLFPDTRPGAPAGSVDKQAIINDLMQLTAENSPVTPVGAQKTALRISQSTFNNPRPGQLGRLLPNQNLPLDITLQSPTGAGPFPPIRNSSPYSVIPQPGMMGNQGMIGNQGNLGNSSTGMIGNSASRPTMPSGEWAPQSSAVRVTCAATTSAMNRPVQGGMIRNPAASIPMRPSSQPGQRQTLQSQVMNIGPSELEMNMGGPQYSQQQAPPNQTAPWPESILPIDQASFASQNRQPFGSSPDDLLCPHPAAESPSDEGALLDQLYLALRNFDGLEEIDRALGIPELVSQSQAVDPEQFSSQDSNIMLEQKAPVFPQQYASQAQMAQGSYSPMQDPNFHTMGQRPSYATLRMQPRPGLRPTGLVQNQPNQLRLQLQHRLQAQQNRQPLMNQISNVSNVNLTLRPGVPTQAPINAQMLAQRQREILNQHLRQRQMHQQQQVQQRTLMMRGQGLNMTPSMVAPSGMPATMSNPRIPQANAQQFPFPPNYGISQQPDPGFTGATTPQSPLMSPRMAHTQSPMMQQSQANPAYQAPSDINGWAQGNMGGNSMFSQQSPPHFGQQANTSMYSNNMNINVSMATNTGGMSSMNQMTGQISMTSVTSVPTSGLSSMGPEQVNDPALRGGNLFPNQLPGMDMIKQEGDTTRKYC

HT-1080 = assay: HT1080 cell viability loss – fluorescence readout (AID 620); format: functional, cell-based; conditions: Homo sapiens
[8] = alpha-synuclein stem-loop luciferase translation blockers – H4 neuroglioma cells, luminescence, confirmation (AID 1988); format: functional, cell-based
[9] = target: Glyceraldehyde-3-phosphate dehydrogenase (Homo sapiens, UniProt P04406)
Chain of Glyceraldehyde-3-phosphate dehydrogenase (P04406 whole entry): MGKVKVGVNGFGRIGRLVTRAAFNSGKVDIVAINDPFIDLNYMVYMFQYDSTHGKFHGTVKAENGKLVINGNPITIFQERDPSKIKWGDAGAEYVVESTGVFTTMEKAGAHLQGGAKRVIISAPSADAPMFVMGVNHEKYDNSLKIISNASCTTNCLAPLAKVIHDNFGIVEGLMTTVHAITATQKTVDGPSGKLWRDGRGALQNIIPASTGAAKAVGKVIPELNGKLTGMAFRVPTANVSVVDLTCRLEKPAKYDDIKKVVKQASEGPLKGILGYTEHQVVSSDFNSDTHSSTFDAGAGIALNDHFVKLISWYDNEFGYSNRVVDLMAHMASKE

[10] = Luminescence Cell-Based Dose Response HTS to Identify Inhibitors of 5'UTR Stem-Loop Driven Prion Protein mRNA Translation in H4 Neuroglioblastoma Cells. [Related pubchem assays: 1827 (Project Summary), 1813 (Primary HTS)]; format: functional
[11] = target: Luciferin 4-monooxygenase (Photinus pyralis, UniProt P08659); assay: Counter Screen for Luciferase-based Assay Positives. [Related pubchem assays: 620, 618, 411 ]
Chain of Luciferin 4-monooxygenase (P08659 whole entry): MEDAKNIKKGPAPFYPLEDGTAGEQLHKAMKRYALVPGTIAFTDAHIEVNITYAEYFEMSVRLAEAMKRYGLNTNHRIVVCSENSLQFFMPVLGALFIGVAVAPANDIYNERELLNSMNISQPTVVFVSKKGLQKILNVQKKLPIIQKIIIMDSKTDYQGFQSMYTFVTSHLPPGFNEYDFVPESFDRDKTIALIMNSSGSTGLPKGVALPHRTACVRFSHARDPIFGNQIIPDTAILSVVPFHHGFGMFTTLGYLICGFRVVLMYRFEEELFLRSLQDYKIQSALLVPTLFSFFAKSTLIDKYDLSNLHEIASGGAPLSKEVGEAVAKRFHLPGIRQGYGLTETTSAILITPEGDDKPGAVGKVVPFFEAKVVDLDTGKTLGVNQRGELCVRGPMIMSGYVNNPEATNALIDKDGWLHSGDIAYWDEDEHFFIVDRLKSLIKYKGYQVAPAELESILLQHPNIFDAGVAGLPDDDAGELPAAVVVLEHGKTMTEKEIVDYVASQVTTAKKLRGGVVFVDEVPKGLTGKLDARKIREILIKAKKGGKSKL

[12] = luciferase reporter signal suppression in cells – H4 neuroglioma cells, luminescence, dose response (AID 1990); format: functional, cell-based
Cytochrome P450 2C19 = Cytochrome P450 2C19 (Homo sapiens, UniProt P33261); assay: Cytochrome panel assay with activity outcomes. Panel member name: p450-cyp2c19 Compounds with AC50 equal or less than 10 uM are considered active; format: functional; conditions: read-out: AC50
[13] = HepG2 cell cytotoxicity, dose response, cytotoxicity control for non-replicating M. tuberculosis project (AID 489018); format: functional; conditions: Mycobacterium tuberculosis
[14] = non-specific 3'UTR reporter inhibition in Clone20-Shn3RL – cell-based, Renilla luciferase, cherry-picked, counter-screen for Shn3 inhibitor project, dose response (AID 624133); format: functional
cells [15] = format: functional
[16] = Trypanosoma cruzi growth suppression in host cells – NIH3T3 host cells, beta-gal luminescence, confirmation (AID 2044); format: functional, cell-based;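 also: intracellular parasites grown in NIH/3T3 mouse fibroblasts as host cells; luminescent beta-galactosidase reporter signal from transgenic T. cruzi replicating inside host cells; inhibitors lower the luminescence signal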
[17] = NIH3T3 cell viability loss – ATP luminescence, mouse fibroblasts, counter-screen, dose response (AID 2010); format: functional, cell-based;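 also: cells exposed to compound for about 90 hours before reading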
[18] = reduction of Shn3 3'UTR-driven luciferase in osteoblasts – cell-based, Clone20 osteoblasts, firefly luciferase, cherry-picked, dose response (AID 624132); format: functional;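 also: firefly luciferase luminescence from reporter carrying the Shn3 3'UTR in osteoblasts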
[19] = loss of viability in HepG2 cells – cell-based, CellTiter-Glo, cherry-picked, cytotoxicity control for Shn3 inhibitor project, dose response (AID 624134); format: functional
[20] = A cytotoxicity screen of small molecule inhibitors of the PhoP region in Salmonella typhi identified in the primary screen. [Related pubchem assays: 1850, 1864, 1985 ]; format: functional
[21] = luciferase reporter signal reduction – luminescence, H4-C neuroglioblastoma cells, dose response (AID 2458); format: functional, cell-based;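 also: H4 neuroglioblastoma cells stably carrying a luciferase reporter gene fusion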
Jurkat = assay: blockers of NF-kB activation in T cells – Jurkat, luciferase reporter, luminescence, B- and T-cell, dose response (AID 489004); format: functional, cell-based; conditions: Homo sapiens;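 also: NF-kB luciferase reporter Jurkat cells stimulated with PMA plus ionomycin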
cells [22] = format: functional, cell-based
[23] = alpha-synuclein stem-loop translation blockers – luminescence, H4 neuroglioblastoma cells, dose confirmation, confirmation (AID 2454); format: functional, cell-based;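 also: H4 neuroglioblastoma cells carrying an alpha-synuclein 5'UTR luciferase reporter; potency for inhibition of the luciferase signal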
[24] = HEK-293T viability loss, compound-treated – cell-based, uHTS hits, cytotoxicity control for B/T-cell NF-kB inhibitor project, dose response (AID 489019); format: functional;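 also: IC50 reflects cytotoxicity as loss of cell viability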
P388/ADR = assay: cells; format: functional; conditions: Mus musculus
P388 = assay: cells; format: functional; conditions: Mus musculus
SN12K1 = assay: cells; format: functional; conditions: Homo sapiens
[25] = A Cell Based Secondary Assay To Explore Cytotoxicity of Compounds that Sensitize Mycobacterium Tuberculosis to Beta-Lactam Antibiotics.; format: functional
cells [26] = format: functional, cell-based; remark: listed apart in the source
cells [27] = format: functional, cell-based; remark: listed apart in the source
[28] = target: T3, Microphthalmia-associated transcription factor (Homo sapiens, UniProt O75030); assay: reducers of TRPM1 reporter luminescence, concentration series – cell-based, SK-MEL-5, cherry-picked, set 3, MITF inhibitor project, dose response (AID 493073); format: functional;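 also: SK-MEL-5 melanoma cells with luciferase driven by the MITF target TRPM1 promoter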
T3 sequence (O75030 whole entry): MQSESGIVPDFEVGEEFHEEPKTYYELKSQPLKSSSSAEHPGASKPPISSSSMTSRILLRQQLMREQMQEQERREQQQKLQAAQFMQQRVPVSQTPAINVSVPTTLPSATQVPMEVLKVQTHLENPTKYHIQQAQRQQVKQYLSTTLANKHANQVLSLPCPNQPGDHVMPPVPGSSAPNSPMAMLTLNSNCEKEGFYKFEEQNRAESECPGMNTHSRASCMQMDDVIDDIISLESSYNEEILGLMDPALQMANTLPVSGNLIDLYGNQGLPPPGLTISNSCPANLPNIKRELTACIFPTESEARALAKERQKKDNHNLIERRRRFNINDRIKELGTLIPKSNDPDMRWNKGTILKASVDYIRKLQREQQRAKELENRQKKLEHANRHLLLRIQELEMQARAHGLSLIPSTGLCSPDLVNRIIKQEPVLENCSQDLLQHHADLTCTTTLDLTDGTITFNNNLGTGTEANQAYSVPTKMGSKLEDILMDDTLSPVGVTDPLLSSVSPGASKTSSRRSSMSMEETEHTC

Cytochrome P450 2C9 = Cytochrome P450 2C9 (Homo sapiens, UniProt P11712)
Chain of Cytochrome P450 2C9 (P11712 whole entry): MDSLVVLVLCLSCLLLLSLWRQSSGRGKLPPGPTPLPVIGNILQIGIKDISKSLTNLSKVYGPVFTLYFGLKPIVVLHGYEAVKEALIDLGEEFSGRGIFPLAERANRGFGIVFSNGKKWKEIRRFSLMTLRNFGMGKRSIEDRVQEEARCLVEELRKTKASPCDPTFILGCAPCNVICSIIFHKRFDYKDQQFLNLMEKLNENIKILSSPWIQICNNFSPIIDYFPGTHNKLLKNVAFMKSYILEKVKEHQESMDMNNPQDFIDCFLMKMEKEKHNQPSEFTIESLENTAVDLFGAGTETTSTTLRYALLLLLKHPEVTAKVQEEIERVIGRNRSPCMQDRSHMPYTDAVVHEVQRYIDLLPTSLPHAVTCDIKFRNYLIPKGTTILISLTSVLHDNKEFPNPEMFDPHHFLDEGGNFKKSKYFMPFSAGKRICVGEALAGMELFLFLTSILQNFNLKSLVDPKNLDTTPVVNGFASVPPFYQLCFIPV

Cytochrome P450 3A4 = Cytochrome P450 3A4 (Homo sapiens, UniProt P08684);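 also: CYP3A4 tested as one member of a cytochrome P450 panel screen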

Chain of Nucleotide-binding oligomerization domain-containing protein 2 (Q9HC29 whole entry, the tested form may be a part): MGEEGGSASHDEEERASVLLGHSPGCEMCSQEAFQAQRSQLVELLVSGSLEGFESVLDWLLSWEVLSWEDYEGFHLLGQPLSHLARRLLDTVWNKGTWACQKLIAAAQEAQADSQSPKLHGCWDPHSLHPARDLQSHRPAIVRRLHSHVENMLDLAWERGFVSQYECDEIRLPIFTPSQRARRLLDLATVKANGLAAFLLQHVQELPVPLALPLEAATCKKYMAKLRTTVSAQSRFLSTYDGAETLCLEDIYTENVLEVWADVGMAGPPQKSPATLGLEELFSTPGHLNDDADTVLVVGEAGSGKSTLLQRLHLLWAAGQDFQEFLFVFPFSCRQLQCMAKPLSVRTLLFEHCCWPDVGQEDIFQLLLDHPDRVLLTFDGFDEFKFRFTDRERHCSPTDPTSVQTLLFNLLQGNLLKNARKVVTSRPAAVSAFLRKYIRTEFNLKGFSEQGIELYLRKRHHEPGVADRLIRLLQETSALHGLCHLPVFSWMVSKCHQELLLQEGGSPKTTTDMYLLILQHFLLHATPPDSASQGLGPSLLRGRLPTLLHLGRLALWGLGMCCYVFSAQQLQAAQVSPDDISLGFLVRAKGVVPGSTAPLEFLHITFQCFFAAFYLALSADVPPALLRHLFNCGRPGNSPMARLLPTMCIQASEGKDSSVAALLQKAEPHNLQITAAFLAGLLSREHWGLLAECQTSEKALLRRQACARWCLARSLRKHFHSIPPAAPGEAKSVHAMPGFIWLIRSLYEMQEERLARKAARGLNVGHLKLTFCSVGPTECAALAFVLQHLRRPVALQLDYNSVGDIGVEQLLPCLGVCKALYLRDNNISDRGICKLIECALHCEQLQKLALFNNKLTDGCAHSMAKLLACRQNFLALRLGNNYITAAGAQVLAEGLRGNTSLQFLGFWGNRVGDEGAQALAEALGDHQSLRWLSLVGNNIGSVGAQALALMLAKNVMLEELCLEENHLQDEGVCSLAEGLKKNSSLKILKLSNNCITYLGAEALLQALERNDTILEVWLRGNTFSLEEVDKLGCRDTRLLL

CC1(C)Cc2c(sc(NC(=O)C(=O)N3CCCCC3)c2C(=O)O)CO1
IC50 [1]: > 20 µM (inactive)
IC50 (HEK293): > 20 µM (inactive)
IC50 [2]: > 20 µM (inactive)
IC50 (Tumor necrosis factor): > 20 µM (inactive)

CC(C)[C@H](Nc1nc(-c2ccccc2)nc2c1oc1ccccc12)C(=O)O
IC50 (Leucine aminopeptidase): 25.2 µM (active)

CCc1cc2cc(C(=O)Nc3ccc(C)cc3)sc2s1
EC50 [3]: 50.8 µM (not active)
EC50 [4]: 50.4 µM (not active)
IC50 [5]: 2.25 µM (active)
IC50 [6]: > 39.8 µM (not active)
EC50 [7]: 28.1 µM (not active)

CC1(C)Cc2c(sc(NC(=O)c3ccccc3)c2C(=O)O)CO1
IC50 [1]: > 20 µM (inactive)
IC50 (HEK293): > 20 µM (inactive)
IC50 [2]: > 20 µM (inactive)
IC50 (Tumor necrosis factor): > 20 µM (inactive)

CCOc1ccc(-c2cc(CCCC(=O)Nc3cc(OC)ccc3OC)no2)cc1
EC50 (HT-1080): > 50 µM (not active)
EC50 [8]: 11.9 µM (active)
IC50 [9]: > 100 µM (not active)
EC50 [10]: 26.9 µM (active)
EC50 [11]: 18.8 µM (active)
EC50 [12]: 13 µM (active)
AC50 (Cytochrome P450 2C19): 3.16 µM (inconclusive)

CC(C)(C)c1ccc(NC(=O)COc2ccc(-n3ccnc3)cc2)cc1
CC50 [13]: > 20 µM (active)
AC50 [14]: 10 µM (active)
IC50 (cells [15]): 26.1 µM (active)
EC50 [16]: 1.27 µM (active)
EC50 [17]: > 60 µM (not active)
AC50 [18]: 5.27 µM (active)
AC50 [19]: 43.1 µM (active)
EC50 [20]: > 50 µM (active)

COc1ccc(/C(C)=C2/SC(=S)N(CCC(=O)O)C2=O)cc1
IC50 (Leucine aminopeptidase): 27.4 µM (active)

C=CCNC(=O)c1ccc(-c2nc(-c3ccc(Cl)cc3Cl)cs2)cc1
EC50 [3]: 10.9 µM (not active)
EC50 [4]: 17.1 µM (not active)
EC50 [7]: 10.2 µM (not active)

COc1ccc(-c2nc3cc(NC(=O)Cc4ccc(OC)c(OC)c4)ccc3o2)cc1
EC50 [20]: > 50 µM (active)

COC(=O)Cc1ccc(NC(=O)c2ccc(C(C)(C)C)cc2)cc1
EC50 (HT-1080): > 50 µM (not active)
EC50 [8]: < 0.1 µM (active)
EC50 [21]: 0.067 µM (active)
EC50 [10]: < 0.1 µM (active)
IC50 (Jurkat): 0.19 µM (active)
EC50 [11]: 1.8 µM (active)
EC50 (cells [22]): 0.263 µM (active)
EC50 [23]: 0.161 µM (active)
EC50 [12]: < 0.1 µM (active)
IC50 [24]: 78.9 µM (inactive)

O=C1NC(=S)NC(=O)C1=C(O)Nc1ccccc1
GI50 (P388/ADR): 25.2 µM (inactive)
GI50 (P388): 16.7 µM (inactive)
EC50 [20]: > 50 µM (active)
GI50 (SN12K1): 15 µM (inactive)

O=C1C2ON(c3ccc(Br)cc3)C(c3cccnc3)C2C(=O)N1C1CCCCC1 (stereo not given)
CC50 [25]: 37.9 µM (active)

COc1cccc(CNC(=O)CCCn2c(=S)[nH]c3cc4c(cc3c2=O)OCO4)c1
EC50 (cells [26]): 54.4 µM (active)
IC50 [5]: 4.26 µM (active)
IC50 [6]: > 39.8 µM (not active)
EC50 (cells [27]): > 350 µM (not active)

CC(=O)Nc1nc2ccccc2n1S(=O)(=O)c1ccc(Cl)cc1
IC50 [1]: > 20 µM (inactive)
IC50 (HEK293): > 20 µM (inactive)
IC50 [2]: 4.56 µM (active)
IC50 (Tumor necrosis factor): > 20 µM (inactive)

CCOC(=O)/C(=N\Nc1ccccc1)c1csc(Nc2ccc(C)cc2)n1
CC50 [25]: 31.3 µM (active)
EC50 [16]: 2.13 µM (active)
EC50 [17]: > 30 µM (not active)

O=C(N/N=C/c1ccc([N+](=O)[O-])s1)c1ccccc1Br
EC50 (HT-1080): > 50 µM (not active)
AC50 [28]: 3.65 µM (active)
AC50 (Cytochrome P450 2C9): 39.8 µM (inconclusive)
EC50 [11]: 0.24 µM (active)
AC50 (Cytochrome P450 3A4): 22.4 µM (inconclusive)
